Data as given in PMC12274840 (The Journal of Biological Chemistry, 2025).
In brackets after ≈: the same amount, converted by molar mass. Read-outs that look alike come from different tables or passages of the source.

Key:
[1] = system: E. coli KA797 cells carrying pUK21 with CTX-M-14 WT (Tat); test: microbe, parasite or virus in culture; assay type: cell-based; conditions: Escherichia coli, antibiotic alone
[2] = system: E. coli KA797 cells carrying BlaC position 105 library; assay type: cell-based, Escherichia coli; conditions: ampicillin; for Fi AMP AVG: average of replicates
BlaC WT = biological target: T1, BlaC WT (Mycobacterium tuberculosis, UniProt P9WKD3); assay type: biochemical; conditions: pH 6.4
T1 construct: correspond to residue numbers 41-307 of BlaC (Uniprot entry P9WKD3-1); His tag with TEV cleavage site (N); made in house; host or cells: E. coli BL21 (DE3) pLysS

[3] = system: E. coli KA797 cells carrying pUK21 with TEM-1 WT (Sec); test: microbe, parasite or virus in culture; assay type: cell-based; conditions: Escherichia coli, antibiotic alone
[4] = system: E. coli KA797 cells carrying CTX-M-14 position 105 library; assay type: cell-based
[5] = system: E. coli KA797 cells carrying NmcA position 105 library; assay type: cell-based
CTX-M-14 Y105G = biological target: T2, CTX-M-14 Y105G (Escherichia coli, UniProt Q9L5C7, Y108G); assay type: biochemical
T2 construct: 29 to 291 of CTX-M-14 (Q9L5C7); His tag with TEV cleavage site (N); made in house; host or cells: E. coli BL21 (DE3) pLysS

CC1(C)S[C@@H]2[C@H](NC(=O)[C@H](N)c3ccccc3)C(=O)N2[C@H]1C(=O)O [ampicillin]
MIC [1]: 1600 µg/mL (≈ 4.58 mM) | Significance (Fi AMP AVG) ([2]; AA 105 Ala): + | Fi AMP AVG ([2]; AA 105 Ala): 0.883 | Fi AMP 1 ([2]; AA 105 Ala, replicate 1): 0.406 | Fi AMP 2 ([2]; AA 105 Ala, replicate 2): 1.100 | Fi AMP 3 ([2]; AA 105 Ala, replicate 3): 1.141 | Fi AMP AVG ([2]; AA 105 Arg): 0.475 | Fi AMP 1 ([2]; AA 105 Arg, replicate 1): 0.818 | Fi AMP 2 ([2]; AA 105 Arg, replicate 2): -0.366 | Fi AMP 3 ([2]; AA 105 Arg, replicate 3): 0.972 | Fi AMP AVG ([2]; AA 105 Asn): -0.118 | Fi AMP 1 ([2]; AA 105 Asn, replicate 1): -0.339 | Fi AMP 2 ([2]; AA 105 Asn, replicate 2): -0.227 | Fi AMP 3 ([2]; AA 105 Asn, replicate 3): 0.211 | Fi AMP AVG ([2]; AA 105 Asp): 0.229 | Fi AMP 1 ([2]; AA 105 Asp, replicate 1): 0.470 | Fi AMP 3 ([2]; AA 105 Asp, replicate 3): -0.012 | Significance (Fi AMP AVG) ([2]; AA 105 Cys): + | Fi AMP AVG ([2]; AA 105 Cys): 0.500 | Fi AMP 1 ([2]; AA 105 Cys, replicate 1): 0.488 | Fi AMP 2 ([2]; AA 105 Cys, replicate 2): 0.257 | Fi AMP 3 ([2]; AA 105 Cys, replicate 3): 0.755 | Fi AMP AVG ([2]; AA 105 Gln): 0.694 | Fi AMP 3 ([2]; AA 105 Gln, replicate 3): 0.694 | Fi AMP AVG ([2]; AA 105 Glu): 0.120 | Fi AMP 1 ([2]; AA 105 Glu, replicate 1): -0.486 | Fi AMP 2 ([2]; AA 105 Glu, replicate 2): 1.183 | Fi AMP 3 ([2]; AA 105 Glu, replicate 3): -0.337 | Fi AMP AVG ([2]; AA 105 Gly): 0.342 | Fi AMP 1 ([2]; AA 105 Gly, replicate 1): 0.540 | Fi AMP 2 ([2]; AA 105 Gly, replicate 2): -0.133 | Fi AMP 3 ([2]; AA 105 Gly, replicate 3): 0.619 | Significance (Fi AMP AVG) ([2]; AA 105 His): + | Fi AMP AVG ([2]; AA 105 His): 2.187 | Fi AMP 1 ([2]; AA 105 His, replicate 1): 2.095 | Fi AMP 2 ([2]; AA 105 His, replicate 2): 2.262 | Fi AMP 3 ([2]; AA 105 His, replicate 3): 2.205 | Fi AMP AVG ([2]; AA 105 Ile (WT)): 0.000 | Fi AMP 1 ([2]; AA 105 Ile (WT), replicate 1): 0.000 | Fi AMP 2 ([2]; AA 105 Ile (WT), replicate 2): 0.000 | Fi AMP 3 ([2]; AA 105 Ile (WT), replicate 3): 0.000 | Fi AMP AVG ([2]; AA 105 Leu): 0.259 | Fi AMP 1 ([2]; AA 105 Leu, replicate 1): 0.406 | Fi AMP 2 ([2]; AA 105 Leu, replicate 2): -0.033 | Fi AMP 3 ([2]; AA 105 Leu, replicate 3): 0.405 | Fi AMP AVG ([2]; AA 105 Lys): 0.741 | Fi AMP 1 ([2]; AA 105 Lys, replicate 1): 0.741 | Fi AMP AVG ([2]; AA 105 Met): 0.434 | Fi AMP 1 ([2]; AA 105 Met, replicate 1): 0.165 | Fi AMP 2 ([2]; AA 105 Met, replicate 2): 0.714 | Fi AMP 3 ([2]; AA 105 Met, replicate 3): 0.423 | Significance (Fi AMP AVG) ([2]; AA 105 Phe): + | Fi AMP AVG ([2]; AA 105 Phe): 3.116 | Fi AMP 1 ([2]; AA 105 Phe, replicate 1): 3.353 | Fi AMP 2 ([2]; AA 105 Phe, replicate 2): 2.935 | Fi AMP 3 ([2]; AA 105 Phe, replicate 3): 3.061 | Fi AMP AVG ([2]; AA 105 Pro): 0.423 | Fi AMP 1 ([2]; AA 105 Pro, replicate 1): 0.675 | Fi AMP 2 ([2]; AA 105 Pro, replicate 2): 0.012 | Fi AMP 3 ([2]; AA 105 Pro, replicate 3): 0.583 | Fi AMP AVG ([2]; AA 105 Ser): 0.267 | Fi AMP 1 ([2]; AA 105 Ser, replicate 1): 1.268 | Fi AMP 2 ([2]; AA 105 Ser, replicate 2): -0.404 | Fi AMP 3 ([2]; AA 105 Ser, replicate 3): -0.062 | Fi AMP AVG ([2]; AA 105 Thr): 0.222 | Fi AMP 1 ([2]; AA 105 Thr, replicate 1): -0.283 | Fi AMP 2 ([2]; AA 105 Thr, replicate 2): 0.921 | Fi AMP 3 ([2]; AA 105 Thr, replicate 3): 0.029 | Significance (Fi AMP AVG) ([2]; AA 105 Trp): + | Fi AMP AVG ([2]; AA 105 Trp): 3.126 | Fi AMP 1 ([2]; AA 105 Trp, replicate 1): 3.329 | Fi AMP 2 ([2]; AA 105 Trp, replicate 2): 2.872 | Fi AMP 3 ([2]; AA 105 Trp, replicate 3): 3.175 | Significance (Fi AMP AVG) ([2]; AA 105 Tyr): + | Fi AMP AVG ([2]; AA 105 Tyr): 3.396 | Fi AMP 1 ([2]; AA 105 Tyr, replicate 1): 3.695 | Fi AMP 2 ([2]; AA 105 Tyr, replicate 2): 3.143 | Fi AMP 3 ([2]; AA 105 Tyr, replicate 3): 3.349 | Fi AMP AVG ([2]; AA 105 Val): -0.310 | Fi AMP 1 ([2]; AA 105 Val, replicate 1): -0.429 | Fi AMP 3 ([2]; AA 105 Val, replicate 3): -0.191 | WT abs Fi 1 ([2]; WT (Ile 105) absolute fitness, replicate 1): -1.907 | WT abs Fi 2 ([2]; WT (Ile 105) absolute fitness, replicate 2): -1.350 | WT abs Fi 3 ([2]; WT (Ile 105) absolute fitness, replicate 3): -1.353 | kcat (BlaC WT): 14 ± 2 s⁻¹ | Km (BlaC WT; read-out: KM^app): 68 ± 3 µM | MIC [3]: 12800 µg/mL (≈ 36.6 mM) | Significance of average fitness ([4]; CTX-M-14 AA 105 Ala): - | Significance of average fitness ([4]; CTX-M-14 AA 105 Arg): - | Significance of average fitness ([4]; CTX-M-14 AA 105 Asn): - | Significance of average fitness ([4]; CTX-M-14 AA 105 Asp): - | Significance of average fitness ([4]; CTX-M-14 AA 105 Cys): - | Significance of average fitness ([4]; CTX-M-14 AA 105 Gln): - | Significance of average fitness ([4]; CTX-M-14 AA 105 Glu): - | Significance of average fitness ([4]; CTX-M-14 AA 105 Gly): - | Significance of average fitness ([4]; CTX-M-14 AA 105 His): - | Significance of average fitness ([4]; CTX-M-14 AA 105 Ile): - | Significance of average fitness ([4]; CTX-M-14 AA 105 Leu): - | Significance of average fitness ([4]; CTX-M-14 AA 105 Lys): - | Significance of average fitness ([4]; CTX-M-14 AA 105 Met): - | Significance of average fitness ([4]; CTX-M-14 AA 105 Pro): - | Significance of average fitness ([4]; CTX-M-14 AA 105 Ser): - | Significance of average fitness ([4]; CTX-M-14 AA 105 Thr): - | Significance of average fitness ([4]; CTX-M-14 AA 105 Val): - | WT abs Fi 2 (absolute fitness of wild type, Replicate 2) ([4]; CTX-M-14 WT (Tyr 105)): 0.605 | Fi AVG (average fitness of replicates) ([5]; NmcA AA 105 Ala): -0.604 | Significance of average fitness ([5]; NmcA AA 105 Ala): - | Fi AVG (average fitness of replicates) ([5]; NmcA AA 105 Arg): -0.595 | Significance of average fitness ([5]; NmcA AA 105 Arg): - | Fi AVG (average fitness of replicates) ([5]; NmcA AA 105 Asn): -0.193 | Significance of average fitness ([5]; NmcA AA 105 Asn): - | Fi AVG (average fitness of replicates) ([5]; NmcA AA 105 Asp): -0.514 | Significance of average fitness ([5]; NmcA AA 105 Asp): - | Fi AVG (average fitness of replicates) ([5]; NmcA AA 105 Cys): -0.572 | Significance of average fitness ([5]; NmcA AA 105 Cys): - | Fi AVG (average fitness of replicates) ([5]; NmcA AA 105 Gln): -0.362 | Significance of average fitness ([5]; NmcA AA 105 Gln): - | Fi AVG (average fitness of replicates) ([5]; NmcA AA 105 Glu): -0.554 | Significance of average fitness ([5]; NmcA AA 105 Glu): - | Fi AVG (average fitness of replicates) ([5]; NmcA AA 105 Gly): -0.012 | Fi AVG (average fitness of replicates) ([5]; NmcA AA 105 His): 0.000 | Fi AVG (average fitness of replicates) ([5]; NmcA AA 105 Ile): -0.668 | Significance of average fitness ([5]; NmcA AA 105 Ile): - | Fi AVG (average fitness of replicates) ([5]; NmcA AA 105 Leu): -0.515 | Significance of average fitness ([5]; NmcA AA 105 Leu): - | Fi AVG (average fitness of replicates) ([5]; NmcA AA 105 Lys): -0.761 | Significance of average fitness ([5]; NmcA AA 105 Lys): - | Fi AVG (average fitness of replicates) ([5]; NmcA AA 105 Met): -0.296 | Significance of average fitness ([5]; NmcA AA 105 Met): - | Fi AVG (average fitness of replicates) ([5]; NmcA AA 105 Phe): -0.065 | Fi AVG (average fitness of replicates) ([5]; NmcA AA 105 Pro): -0.462 | Significance of average fitness ([5]; NmcA AA 105 Pro): - | Fi AVG (average fitness of replicates) ([5]; NmcA AA 105 Ser): -0.413 | Significance of average fitness ([5]; NmcA AA 105 Ser): - | Fi AVG (average fitness of replicates) ([5]; NmcA AA 105 Thr): -0.905 | Significance of average fitness ([5]; NmcA AA 105 Thr): - | Fi AVG (average fitness of replicates) ([5]; NmcA AA 105 Trp): 0.277 | Significance of average fitness ([5]; NmcA AA 105 Trp): + | Fi AVG (average fitness of replicates) ([5]; NmcA AA 105 Tyr): 0.049 | Fi AVG (average fitness of replicates) ([5]; NmcA AA 105 Val): -0.608 | Significance of average fitness ([5]; NmcA AA 105 Val): - | WT abs Fi 1 (absolute fitness) ([5]; NmcA WT, replicate 1): 0.229 | WT abs Fi 2 (absolute fitness) ([5]; NmcA WT, replicate 2): 0.425 | kcat (CTX-M-14 Y105G; phosphate buffer pH 6.4, 25 °C): 48 ± 2 s⁻¹ | Km (CTX-M-14 Y105G; read-out: KM^app, phosphate buffer pH 6.4, 25 °C): 297 ± 10 µM
